Values quoted from earlier work as cited in patent publication US7052486B2, “Method and system for treating depressive and anxiety disorders” (Medtronic, Inc., priority 2003, dated 2006).

Assays:
refractory depression = conditions: single intrathecal bolus
depression = conditions: administered parenterally (IV or SQ)
[1] = tested on: refractory obsessive-compulsive disorder (OCD); conditions: chronic parenteral use

SMILES | patients successfully treated for refractory depression (refractory depression) | time to rapid and dramatic improvement in the symptoms of severe depression (refractory depression) [h] | response in depression (depression) | OCD behaviors [1] | symptoms of depression as measured by the Hamilton scale [1]
NC(=O)[C@@H]1CCCN1C(=O)[C@H](Cc1cnc[nH]1)NC(=O)[C@@H]1CCC(=O)N1 [TRH, Thyrotropin-releasing hormone] | 7 out of 10 | < 24 | unpredictable responses |  | 
CNS(=O)(=O)Cc1ccc2[nH]cc(CCN(C)C)c2c1 [sumatriptan] |  |  |  | only modest reductions | significant improvements
